Square brackets hold non-standard residues; d marks the D form. Peptide text beside a SMILES is read from it. Oic = O=C(O)[C@@H]1C[C@@H]2CCCC[C@@H]2N1; 2Nal = N[C@@H](Cc1ccc2ccccc2c1)C(=O)O; hArg = N=C(N)NCCCC[C@H](N)C(=O)O; Cit = NC(=O)NCCC[C@H](N)C(=O)O

The source of these data is US8168592B2 (Amgen Inc., priority 2005, dated 2012).

The target of this assay is T1, CGRP1 receptor (Homo sapiens, UniProt O60894+Q16602).
T1 construct: SK-N-MC cells express CRLR and RAMP1, which form CGRP1 receptor; endogenous in cells; host or cells: SK-N-MC human neuroblastoma cells
Put plainly: in vitro CGRP1 receptor mediated cAMP assay in SK-N-MC cells. Particulars: Table 2C; unconjugated peptide; read-out: Peptide IC50. In kind it is cell-based. The procedure, abridged: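 Human SK-N-MC neuroblastoma cells, which endogenously express CRLR/RAMP1, were plated two days before assay and preincubated in plasma-free medium for 15 minutes at room temperature. Cells were then lysed for 30 minutes at 37° C, and cAMP in the lysates was quantified by competitive cAMP-AP chemiluminescent ELISA.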
Background: Changes in cAMP serve as a functional read-out for many G protein-coupled receptors.

T1 sequence (Q16602 23-461): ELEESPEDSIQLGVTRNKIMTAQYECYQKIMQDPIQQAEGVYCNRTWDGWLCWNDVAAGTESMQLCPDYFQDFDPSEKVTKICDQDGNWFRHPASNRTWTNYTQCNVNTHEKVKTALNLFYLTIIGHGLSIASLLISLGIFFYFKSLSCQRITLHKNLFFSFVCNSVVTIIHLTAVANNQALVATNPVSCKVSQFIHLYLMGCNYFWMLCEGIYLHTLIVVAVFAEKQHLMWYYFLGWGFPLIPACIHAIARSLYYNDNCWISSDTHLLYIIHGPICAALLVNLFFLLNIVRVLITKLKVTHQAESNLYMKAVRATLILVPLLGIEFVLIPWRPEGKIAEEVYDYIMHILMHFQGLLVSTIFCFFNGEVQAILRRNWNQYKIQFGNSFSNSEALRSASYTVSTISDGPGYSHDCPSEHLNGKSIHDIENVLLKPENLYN
T1 sequence (O60894 27-148): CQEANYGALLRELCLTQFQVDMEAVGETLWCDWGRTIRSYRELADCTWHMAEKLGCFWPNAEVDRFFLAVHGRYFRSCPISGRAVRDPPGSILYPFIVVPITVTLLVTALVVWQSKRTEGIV

One may read the IC50 as the point on the concentration scale where inhibition reaches its midpoint. For `CC(=O)N[C@@H](Cc1c[nH]c2ccccc12)C(=O)N[C@H](C(=O)N[C@H](C(=O)N[C@@H](Cc1c[nH]cn1)C(=O)N[C@@H](CCCNC(N)=O)C(=O)N[C@@H](CC(C)C)C(=O)N[C@@H](C)C(=O)NCC(=O)N[C@@H](CC(C)C)C(=O)N[C@@H](CC(C)C)C(=O)N[C@@H](CO)C(=O)N[C@@H](CCCNC(N)=O)C(=O)N[C@@H](CO)C(=O)NCC(=O)NCC(=O)N[C@H](C(=O)N[C@H](C(=O)N[C@@H](CCCNC(=N)N)C(=O)N[C@@H](CCCCN)C(=O)N[C@@H](CC(N)=O)C(=O)N[C@@H](Cc1ccccc1)C(=O)N[C@H](C(=O)N1CCC[C@H]1C(=O)N[C@H](C(=O)N[C@@H](CC(=O)O)C(=O)N[C@H](C(=O)NCC(=O)N1[C@H](C(=O)N[C@@H](Cc2ccccc2)C(=O)N[C@@H](C)C(=O)N[C@@H](Cc2ccccc2)C(N)=O)C[C@@H]2CCCC[C@@H]21)C(C)C)[C@@H](C)O)C(C)C)C(C)C)C(C)C)[C@@H](C)O)C(C)C` [compound 920] (Ac-WVTH[Cit]LAGLLS[Cit]SGGVVRKNFVPTDVG[Oic]FAF-NH2), the IC50 turned out to be 0.85 nM.
The result for `CC(=O)N[C@@H](Cc1c[nH]c2ccccc12)C(=O)N[C@H](C(=O)N[C@H](C(=O)N[C@@H](Cc1c[nH]cn1)C(=O)N[C@@H](CCCNC(N)=O)C(=O)N[C@@H](CC(C)C)C(=O)N[C@@H](C)C(=O)NCC(=O)N[C@@H](CC(C)C)C(=O)N[C@@H](CC(C)C)C(=O)N[C@@H](CO)C(=O)N[C@@H](CCCNC(N)=O)C(=O)N[C@@H](CO)C(=O)NCC(=O)NCC(=O)N[C@H](C(=O)N[C@H](C(=O)N[C@@H](CCCNC(=N)N)C(=O)N[C@@H](CCCCN)C(=O)N[C@@H](CC(N)=O)C(=O)N[C@@H](Cc1ccccc1)C(=O)N[C@H](C(=O)N1CCC[C@H]1C(=O)N[C@H](C(=O)N[C@@H](CC(=O)O)C(=O)N[C@H](C(=O)NCC(=O)N1CCC[C@H]1C(=O)N[C@@H](Cc1ccccc1)C(=O)N[C@@H](C)C(=O)N[C@@H](Cc1ccc(I)cc1)C(N)=O)C(C)C)[C@@H](C)O)C(C)C)C(C)C)C(C)C)[C@@H](C)O)C(C)C` [compound 923] reads 2.24 nM; that for `CC(=O)N[C@@H](Cc1c[nH]c2ccccc12)C(=O)N[C@H](C(=O)N[C@H](C(=O)N[C@@H](Cc1c[nH]cn1)C(=O)N[C@@H](CCCCNC(=N)N)C(=O)N[C@@H](CC(C)C)C(=O)N[C@@H](C)C(=O)NCC(=O)N[C@@H](CC(C)C)C(=O)N[C@@H](CC(C)C)C(=O)N[C@@H](CO)C(=O)N[C@@H](CCCNC(N)=O)C(=O)N[C@@H](CO)C(=O)NCC(=O)NCC(=O)N[C@H](C(=O)N[C@H](C(=O)N[C@@H](CCCCNC(=N)N)C(=O)N[C@@H](CCCCN)C(=O)N[C@@H](CC(N)=O)C(=O)N[C@@H](Cc1ccccc1)C(=O)N[C@H](C(=O)N1CCC[C@H]1C(=O)N[C@H](C(=O)N[C@@H](CC(=O)O)C(=O)N[C@H](C(=O)NCC(=O)N1CCC[C@H]1C(=O)N[C@@H](Cc1ccc2ccccc2c1)C(=O)N[C@@H](C)C(=O)N[C@@H](Cc1ccccc1)C(N)=O)C(C)C)[C@@H](C)O)C(C)C)C(C)C)C(C)C)[C@@H](C)O)C(C)C` [compound 926] (Ac-WVTH[hArg]LAGLLS[Cit]SGGVV[hArg]KNFVPTDVGP[2Nal]AF-NH2), 0.88 nM; that for `CC(=O)N[C@@H](Cc1c[nH]c2ccccc12)C(=O)N[C@H](C(=O)N[C@H](C(=O)N[C@@H](Cc1c[nH]cn1)C(=O)N[C@@H](CCCNC(N)=O)C(=O)N[C@@H](CC(C)C)C(=O)N[C@@H](C)C(=O)NCC(=O)N[C@@H](CC(C)C)C(=O)N[C@@H](CC(C)C)C(=O)N[C@@H](CO)C(=O)N[C@@H](CCCNC(N)=O)C(=O)N[C@@H](CO)C(=O)NCC(=O)NCC(=O)N[C@H](C(=O)N[C@H](C(=O)N[C@@H](CCCCNC(=N)N)C(=O)N[C@@H](CCCCN)C(=O)N[C@@H](CC(N)=O)C(=O)N[C@@H](Cc1ccc(I)cc1)C(=O)N[C@H](C(=O)N1CCC[C@H]1C(=O)N[C@H](C(=O)N[C@@H](CC(=O)O)C(=O)N[C@H](C(=O)NCC(=O)N1CCC[C@H]1C(=O)N[C@@H](Cc1ccc(I)cc1)C(=O)N[C@@H](C)C(=O)N[C@@H](Cc1ccccc1)C(N)=O)C(C)C)[C@@H](C)O)C(C)C)C(C)C)C(C)C)[C@@H](C)O)C(C)C` [compound 928], 1.16 nM.
